Assay results: patent US9833497B2, “Human originated EGF domain proteins and use of the same” (CHENGDU SOURCEBIO LIMITED-LIABILITY COMPANY, priority 2013, dated 2017)

What was measured:
Assay type in all cases: cell-based
[1] = system: Moraxella catarrhalis; experiment: MIC against Gram-negative bacteria: Moraxella catarrhalis; conditions: for MIC: M. catarrhalis
In short: (§1)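 Read-out is absence of bacterial growth, with MIC set at the lowest recombinant protein concentration achieving it. Bacteria, pre-grown in LB to McFarland 0.5 and resuspended, were exposed at 5×10^5 CFU/mL to two-fold diluted human EGF domain proteins in triplicate at 37° C, 175 rpm.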

[2] = system: Proteus mirabilis; experiment: MIC against Gram-negative bacteria: Proteus mirabilis; conditions: for MIC: P. mirabilis
In short: as §1

[3] = system: E. coli BL21; experiment: MIC against Gram-negative bacteria: E. coli BL21
In short: as §1

[4] = system: Proteus vulgaris; experiment: MIC against Gram-negative bacteria: Proteus vulgaris; conditions: for MIC: P. vulgaris
In short: as §1

[5] = system: Serratia marcescens; experiment: MIC against Gram-negative bacteria: Serratia marcescens; conditions: for MIC: S. marcescens
In short: as §1

[6] = system: Pseudomonas aeruginosa; experiment: MIC against Gram-negative bacteria: Pseudomonas aeruginosa; conditions: for MIC: P. aeruginosa
In short: as §1

[7] = system: Citrobacter diversus; experiment: MIC against Gram-negative bacteria: Citrobacter diversus; conditions: for MIC: C. diversus
In short: as §1

[8] = system: E. coli DH5α; experiment: Antibacterial activity: MIC and growth curve against E. coli DH5α in 96-well plate; conditions: minimal inhibitory concentration against E. coli DH5α; 96-well plate, 5×10^5 CFU/mL, 37° C., judged after 8 h
In short: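 Log-phase DH5α (OD600 about 0.5, 37° C, 185 rpm in LB) was pelleted, resuspended in fresh LB and seeded at 5×10^5 CFU/mL with recombinant protein at 50, 25 and 12.5 μg/mL (two-fold series), in triplicate. Plates were shaken at 175 rpm, 37° C, and OD600 was read every 30 min. MIC was the lowest concentration with no growth.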

[9] = system: Aeromonas hydrophila; experiment: MIC against Gram-negative bacteria: Aeromonas hydrophila; conditions: for MIC: A. hydrophila
In short: as §1

[10] = system: Enterobacter cloacae; experiment: MIC against Gram-negative bacteria: Enterobacter cloacae; conditions: for MIC: E. cloacae
In short: as §1

[11] = system: Klebsiella pneumonia; experiment: MIC against Gram-negative bacteria: Klebsiella pneumonia; conditions: for MIC: K. pneumonia
In short: as §1

[12] = 10 h cultivation at 37° C., 5×10^5 CFU/mL, two-fold serial dilution
[13] = 96-well plate, 5×10^5 CFU/mL, 37° C., 10 h
[14] = 10 h cultivation at 37° C., 5×10^5 CFU/mL
[15] = E. coli BL21, 10 h cultivation at 37° C.

PRT1075 (EVNKCSRCLEGACVVNKQSGDVTCNCTDGRVAPSCL; listed as Homo sapiens)
12.5 µg/mL: MIC E. coli BL21 [3, 12] | MIC P. vulgaris [4, 12]
25 µg/mL: MIC M. catarrhalis [1, 12] | MIC P. aeruginosa [6, 12] | MIC [8] | MIC A. hydrophila [9, 12] | MIC E. cloacae [10, 12]
50 µg/mL: MIC P. mirabilis [2, 12] | MIC S. marcescens [5, 12] | MIC C. diversus [7, 12] | MIC K. pneumonia [11, 12]

PRT627 (CTCNPAGSLDTCDPRSGRCPCKENVEGNLCDRCRPGTFNLQPHNPAGCSS; listed as Homo sapiens)
25 µg/mL: MIC E. coli BL21 [3, 13]
50 µg/mL: MIC P. mirabilis [2, 13] | MIC S. marcescens [5, 13]
12.5 µg/mL: MIC M. catarrhalis [1, 13] | MIC P. vulgaris [4, 13] | MIC P. aeruginosa [6, 13] | MIC C. diversus [7, 13] | MIC [8] | MIC A. hydrophila [9, 13] | MIC E. cloacae [10, 13] | MIC K. pneumonia [11, 13]

PRT1238 (IGEACPKLCSGHGYCTTGAICICDESFQGDDCS; listed as Homo sapiens)
12.5 µg/mL: MIC against P. mirabilis ([2]; Proteus mirabilis, 96-well plate, 5×10^5 CFU/mL, 37° C., 10 h) | MIC against E. coli BL21 ([3]; E. coli BL21, 96-well plate, 5×10^5 CFU/mL, 37° C., 10 h) | MIC against A. hydrophila ([9]; Aeromonas hydrophila, 96-well plate, 5×10^5 CFU/mL, 37° C., 10 h) | MIC against K. pneumonia ([11]; Klebsiella pneumonia, 96-well plate, 5×10^5 CFU/mL, 37° C., 10 h)
25 µg/mL: MIC against M. catarrhalis ([1]; Moraxella catarrhalis, 96-well plate, 5×10^5 CFU/mL, 37° C., 10 h) | MIC against P. vulgaris ([4]; Proteus vulgaris, 96-well plate, 5×10^5 CFU/mL, 37° C., 10 h) | MIC [8]
50 µg/mL: MIC against S. marcescens ([5]; Serratia marcescens, 96-well plate, 5×10^5 CFU/mL, 37° C., 10 h) | MIC against P. aeruginosa ([6]; Pseudomonas aeruginosa, 96-well plate, 5×10^5 CFU/mL, 37° C., 10 h) | MIC against C. diversus ([7]; Citrobacter diversus, 96-well plate, 5×10^5 CFU/mL, 37° C., 10 h) | MIC against E. cloacae ([10]; Enterobacter cloacae, 96-well plate, 5×10^5 CFU/mL, 37° C., 10 h)

PRT429 (DVNECEAQRCSQECANIYGSYQCYCRQGYQLAEDGHTCT; listed as Homo sapiens)
50 µg/mL: MIC [4, 14] | MIC [6, 14] | MIC [7, 14] | MIC [10, 14]
25 µg/mL: MIC [2, 14] | MIC [5, 14]
12.5 µg/mL: MIC [1, 14] | MIC ([3]; E. coli BL21, 10 h cultivation at 37° C., 5×10^5 CFU/mL) | MIC [8] | MIC [9, 14] | MIC [11, 14]

PRT1014 (LRDFCSANPCVNGGVCLATYPQIQCHCPPGFEGHACE; listed as Homo sapiens)
12.5 µg/mL: MIC ([2]; 10 h cultivation at 37° C.) | MIC ([7]; 10 h cultivation at 37° C.) | MIC [8] | MIC ([10]; 10 h cultivation at 37° C.)
25 µg/mL: MIC [3, 15] | MIC ([5]; 10 h cultivation at 37° C.) | MIC ([11]; 10 h cultivation at 37° C.)
50 µg/mL: MIC ([1]; 10 h cultivation at 37° C.) | MIC ([4]; 10 h cultivation at 37° C.) | MIC ([6]; 10 h cultivation at 37° C.) | MIC ([9]; 10 h cultivation at 37° C.)

PRT621 (CQCNNNVDPSASGNCDRLTGRCLKCIHNTAGIYCDQCKAGYFGDPLAPNPADKCRA; listed as Homo sapiens)
50 µg/mL: MIC P. mirabilis [2, 13] | MIC S. marcescens [5, 13] | MIC P. aeruginosa [6, 13] | MIC C. diversus [7, 13] | MIC [8] | MIC E. cloacae [10, 13]
25 µg/mL: MIC M. catarrhalis [1, 13] | MIC E. coli BL21 [3, 13] | MIC P. vulgaris [4, 13] | MIC A. hydrophila [9, 13] | MIC K. pneumonia [11, 13]

PRT912 (DVNECLSNPCDARGTQNCVQRVNDFHCECRAGHTGRRCE; listed as Homo sapiens)
50 µg/mL: MIC ([2]; 10 h cultivation at 37° C.) | MIC ([5]; 10 h cultivation at 37° C.) | MIC ([7]; 10 h cultivation at 37° C.) | MIC ([11]; 10 h cultivation at 37° C.)
100 µg/mL: MIC ([4]; 10 h cultivation at 37° C.) | MIC ([9]; 10 h cultivation at 37° C.)
12.5 µg/mL: MIC ([1]; 10 h cultivation at 37° C.) | MIC [3, 15]
25 µg/mL: MIC ([6]; 10 h cultivation at 37° C.) | MIC [8] | MIC ([10]; 10 h cultivation at 37° C.)
